Measurements from patent US11203571B2, “Sulfonamides as modulators of sodium channels” (VERTEX PHARMACEUTICALS INCORPORATED, priority 2013, dated 2021).

Experiments:
human Nav1.8 = human Nav1.8 (Homo sapiens (Human), UniProt Q9Y5Y9); assay: E-VIPR optical membrane potential assay with electrical stimulation; format: cell-based; conditions: HEK cells expressing human Nav1.8
Outline: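 HEK cells expressing human Nav1.8 were loaded with CC2-DMPE (8 μM) and DiSBAC6(3) (2.5 μM), then given compound for 20-35 min at room temperature (0.625% DMSO). Cells received a 10-s current-controlled electrical stimulus. Response was the stimulated/baseline 460/580 nm emission ratio (Rf/Ri), with tetracaine (125 μM) as positive control.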

[1] = Human liver microsome assay; format: in vitro ADME; conditions: 1 uM substrate, 0.5 mg/mL liver microsome, 2 mM NADPH, 37° C., referenced against time zero control
Outline: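 Pooled human liver microsomes (0.5 mg/mL) with 1 uM substrate (0.2% DMSO), 2 mM NADPH, 0.1 M phosphate, shaken 30 min at 37° C. Quenched with cold acetonitrile; parent quantified by LC/MS/MS. Value is % substrate remaining at 30 min versus a time-zero control without NADPH.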

human Nav1.8, sequence (Q9Y5Y9 whole entry): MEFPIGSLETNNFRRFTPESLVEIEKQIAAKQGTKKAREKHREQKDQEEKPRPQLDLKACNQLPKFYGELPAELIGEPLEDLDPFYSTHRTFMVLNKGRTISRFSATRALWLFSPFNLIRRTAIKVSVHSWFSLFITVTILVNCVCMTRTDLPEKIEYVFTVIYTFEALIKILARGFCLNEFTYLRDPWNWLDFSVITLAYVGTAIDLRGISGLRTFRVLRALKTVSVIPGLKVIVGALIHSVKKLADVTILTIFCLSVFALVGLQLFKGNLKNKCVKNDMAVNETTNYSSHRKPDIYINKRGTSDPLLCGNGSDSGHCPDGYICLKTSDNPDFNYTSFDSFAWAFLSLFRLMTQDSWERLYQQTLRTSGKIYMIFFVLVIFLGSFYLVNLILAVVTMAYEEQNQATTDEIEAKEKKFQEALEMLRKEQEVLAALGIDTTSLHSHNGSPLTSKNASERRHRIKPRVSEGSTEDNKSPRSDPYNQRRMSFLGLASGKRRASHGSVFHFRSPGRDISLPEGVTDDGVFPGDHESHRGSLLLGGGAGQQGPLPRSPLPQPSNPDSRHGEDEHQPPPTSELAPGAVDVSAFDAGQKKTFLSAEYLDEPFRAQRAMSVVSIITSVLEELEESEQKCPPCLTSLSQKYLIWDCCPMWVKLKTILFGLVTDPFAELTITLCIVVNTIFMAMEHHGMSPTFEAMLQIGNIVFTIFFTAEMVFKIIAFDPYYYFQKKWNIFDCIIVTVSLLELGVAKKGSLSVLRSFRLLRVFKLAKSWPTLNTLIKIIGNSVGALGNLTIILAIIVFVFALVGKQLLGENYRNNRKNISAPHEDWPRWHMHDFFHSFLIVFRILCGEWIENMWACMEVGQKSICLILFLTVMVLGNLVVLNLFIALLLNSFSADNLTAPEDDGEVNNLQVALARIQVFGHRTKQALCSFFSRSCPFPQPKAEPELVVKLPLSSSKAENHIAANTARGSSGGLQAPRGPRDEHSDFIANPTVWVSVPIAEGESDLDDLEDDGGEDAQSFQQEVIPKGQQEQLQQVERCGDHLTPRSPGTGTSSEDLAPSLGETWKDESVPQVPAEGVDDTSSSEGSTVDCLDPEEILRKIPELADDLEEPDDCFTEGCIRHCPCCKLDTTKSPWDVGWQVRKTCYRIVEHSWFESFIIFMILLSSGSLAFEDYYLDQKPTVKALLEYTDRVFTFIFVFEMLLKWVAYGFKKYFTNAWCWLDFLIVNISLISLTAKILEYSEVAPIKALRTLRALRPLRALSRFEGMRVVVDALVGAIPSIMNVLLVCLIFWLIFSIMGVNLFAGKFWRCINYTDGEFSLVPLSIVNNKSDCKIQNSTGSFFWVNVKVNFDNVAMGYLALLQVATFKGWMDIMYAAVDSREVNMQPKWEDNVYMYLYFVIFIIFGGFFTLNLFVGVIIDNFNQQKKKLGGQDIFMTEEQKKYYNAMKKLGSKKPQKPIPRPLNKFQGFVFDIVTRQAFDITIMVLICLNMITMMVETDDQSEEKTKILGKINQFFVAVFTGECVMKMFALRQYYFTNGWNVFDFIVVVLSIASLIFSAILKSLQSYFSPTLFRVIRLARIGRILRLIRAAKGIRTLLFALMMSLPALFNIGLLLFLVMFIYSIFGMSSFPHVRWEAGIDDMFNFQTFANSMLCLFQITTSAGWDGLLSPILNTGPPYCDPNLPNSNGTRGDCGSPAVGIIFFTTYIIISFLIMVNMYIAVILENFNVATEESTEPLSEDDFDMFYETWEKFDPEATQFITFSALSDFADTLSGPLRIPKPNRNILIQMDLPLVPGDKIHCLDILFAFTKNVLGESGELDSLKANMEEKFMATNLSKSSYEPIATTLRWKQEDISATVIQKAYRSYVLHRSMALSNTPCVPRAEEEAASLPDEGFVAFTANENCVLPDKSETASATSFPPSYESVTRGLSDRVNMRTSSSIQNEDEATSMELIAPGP

SMILES: COc1c(Cl)cccc1Oc1cc(C(F)(F)F)ccc1C(=O)Nc1cccc(S(N)(=O)=O)c1 [Compound 68, 2-(3-chloro-2-methoxyphenoxy)-N-(3-sulfamoylphenyl)-4-(trifluoromethyl)benzamide]
- IC50 (human Nav1.8): 9 nM
- HLM: percent unchanged after 30 min [1]: 80%

SMILES: NS(=O)(=O)c1cccc(NC(=O)c2ccc(C(F)(F)C(F)(F)F)cc2Oc2ccc(F)cc2)c1 [Compound 69, 2-(4-fluorophenoxy)-4-(perfluoroethyl)-N-(3-sulfamoylphenyl)benzamide]
- IC50 (human Nav1.8): 26 nM
- HLM: percent unchanged after 30 min [1]: 110%

SMILES: COc1cc(F)ccc1Oc1cc(C(F)(F)C(F)(F)F)ccc1C(=O)Nc1cccc(S(N)(=O)=O)c1 [Compound 70, 2-(4-fluoro-2-methoxyphenoxy)-4-(perfluoroethyl)-N-(3-sulfamoylphenyl)benzamide]
- IC50 (human Nav1.8): 13 nM
- HLM: percent unchanged after 30 min [1]: 87%

SMILES: COc1cc(Cl)ccc1Oc1cc(C(F)(F)C(F)(F)F)ccc1C(=O)Nc1cccc(S(N)(=O)=O)c1 [Compound 71, 2-(4-chloro-2-methoxyphenoxy)-4-(perfluoroethyl)-N-(3-sulfamoylphenyl)benzamide]
- IC50 (human Nav1.8): 28 nM
- HLM: percent unchanged after 30 min [1]: 81%

SMILES: COc1ccc(Oc2cc(C(F)(F)C(F)(F)F)ccc2C(=O)Nc2cccc(S(N)(=O)=O)c2)c(Cl)c1 [Compound 72, 2-(2-chloro-4-methoxyphenoxy)-4-(perfluoroethyl)-N-(3-sulfamoylphenyl)benzamide]
- IC50 (human Nav1.8): 20 nM
- HLM: percent unchanged after 30 min [1]: 67%

SMILES: NS(=O)(=O)c1cccc(NC(=O)c2ccc(C(F)(F)F)cc2Oc2ccccc2Cl)c1 [Compound 73, 2-(2-chlorophenoxy)-N-(3-sulfamoylphenyl)-4-(trifluoromethyl)benzamide]
- IC50 (human Nav1.8): 26 nM
- HLM: percent unchanged after 30 min [1]: 95%

SMILES: NS(=O)(=O)c1cccc(NC(=O)c2c(Oc3ccccc3Cl)cccc2C(F)(F)F)c1 [Compound 74, 2-(2-chlorophenoxy)-N-(3-sulfamoylphenyl)-6-(trifluoromethyl)benzamide]
- IC50 (human Nav1.8): 15 nM
- HLM: percent unchanged after 30 min [1]: 102%

SMILES: COc1ccc(Oc2cccc(C(F)(F)F)c2C(=O)Nc2cccc(S(N)(=O)=O)c2)c(Cl)c1 [Compound 75, 2-(2-chloro-4-methoxyphenoxy)-N-(3-sulfamoylphenyl)-6-(trifluoromethyl)benzamide]
- IC50 (human Nav1.8): 5 nM
- HLM: percent unchanged after 30 min [1]: 62%

SMILES: COc1cc(F)ccc1Oc1cc(Cl)c(Cl)cc1C(=O)Nc1cccc(S(N)(=O)=O)c1 [Compound 77, 4,5-dichloro-2-(4-fluoro-2-methoxyphenoxy)-N-(3-sulfamoylphenyl)benzamide]
- IC50 (human Nav1.8): 1 nM
- HLM: percent unchanged after 30 min [1]: 95%

SMILES: NS(=O)(=O)c1cccc(NC(=O)c2cc(Cl)c(Cl)cc2Oc2ccc(F)cc2)c1 [Compound 78, 4,5-dichloro-2-(4-fluorophenoxy)-N-(3-sulfamoylphenyl)benzamide]
- IC50 (human Nav1.8): 8 nM
- HLM: percent unchanged after 30 min [1]: 104%

SMILES: COc1ccc(Oc2cc(Cl)c(Cl)cc2C(=O)Nc2cccc(S(N)(=O)=O)c2)cc1F [Compound 79, 4,5-dichloro-2-(3-fluoro-4-methoxyphenoxy)-N-(3-sulfamoylphenyl)benzamide]
- IC50 (human Nav1.8): 4 nM
- HLM: percent unchanged after 30 min [1]: 91%

SMILES: COc1cc(Cl)ccc1Oc1cc(Cl)c(Cl)cc1C(=O)Nc1cccc(S(N)(=O)=O)c1 [Compound 80, 4,5-dichloro-2-(4-chloro-2-methoxyphenoxy)-N-(3-sulfamoylphenyl)benzamide]
- IC50 (human Nav1.8): 4 nM
- HLM: percent unchanged after 30 min [1]: 108%

SMILES: COc1ccc(Oc2cc(Cl)c(Cl)cc2C(=O)Nc2cccc(S(N)(=O)=O)c2)c(F)c1 [Compound 81, 4,5-dichloro-2-(2-fluoro-4-methoxyphenoxy)-N-(3-sulfamoylphenyl)benzamide]
- IC50 (human Nav1.8): 8 nM
- HLM: percent unchanged after 30 min [1]: 88%

SMILES: COc1ccc(Oc2cc(Cl)c(Cl)cc2C(=O)Nc2cccc(S(N)(=O)=O)c2)c(Cl)c1 [Compound 82, 4,5-dichloro-2-(2-chloro-4-methoxyphenoxy)-N-(3-sulfamoylphenyl)benzamide]
- IC50 (human Nav1.8): 6 nM
- HLM: percent unchanged after 30 min [1]: 77%

SMILES: Cc1cc(F)ccc1Oc1cc(Cl)c(Cl)cc1C(=O)Nc1cccc(S(N)(=O)=O)c1 [Compound 83, 4,5-dichloro-2-(4-fluoro-2-methylphenoxy)-N-(3-sulfamoylphenyl)benzamide]
- IC50 (human Nav1.8): 5 nM
- HLM: percent unchanged after 30 min [1]: 93%

SMILES: COc1ccc(Oc2cc(Cl)ccc2C(=O)Nc2cccc(S(N)(=O)=O)c2)c(OC)c1 [Compound 84, 4-chloro-2-(2,4-dimethoxyphenoxy)-N-(3-sulfamoylphenyl)benzamide]
- IC50 (human Nav1.8): 13 nM
- HLM: percent unchanged after 30 min [1]: 82%

SMILES: COc1ccc(Oc2cc(Cl)ccc2C(=O)Nc2cccc(S(N)(=O)=O)c2)c(Cl)c1 [Compound 86, 4-chloro-2-(2-chloro-4-methoxyphenoxy)-N-(3-sulfamoylphenyl)benzamide]
- IC50 (human Nav1.8): 15 nM
- HLM: percent unchanged after 30 min [1]: 82%

SMILES: NS(=O)(=O)c1cccc(NC(=O)c2c(Oc3ccc(F)cc3)cc(C(F)(F)F)cc2C(F)(F)F)c1 [Compound 88, 2-(4-fluorophenoxy)-N-(3-sulfamoylphenyl)-4,6-bis(trifluoromethyl)benzamide]
- IC50 (human Nav1.8): 7 nM
- HLM: percent unchanged after 30 min [1]: 105%

SMILES: COc1cc(F)ccc1Oc1cc(C(F)(F)F)cc(C(F)(F)F)c1C(=O)Nc1cccc(S(N)(=O)=O)c1 [Compound 89, 2-(4-fluoro-2-methoxyphenoxy)-N-(3-sulfamoylphenyl)-4,6-bis(trifluoromethyl)benzamide]
- IC50 (human Nav1.8): 1 nM
- HLM: percent unchanged after 30 min [1]: 87%

SMILES: COc1ccc(Oc2cc(C(F)(F)F)cc(C(F)(F)F)c2C(=O)Nc2cccc(S(N)(=O)=O)c2)cc1F [Compound 90, 2-(3-fluoro-4-methoxyphenoxy)-N-(3-sulfamoylphenyl)-4,6-bis(trifluoromethyl)benzamide]
- IC50 (human Nav1.8): 7 nM
- HLM: percent unchanged after 30 min [1]: 92%

SMILES: COc1ccc(Oc2cc(C(F)(F)F)cc(C(F)(F)F)c2C(=O)Nc2cccc(S(N)(=O)=O)c2)c(F)c1 [Compound 91, 2-(2-fluoro-4-methoxyphenoxy)-N-(3-sulfamoylphenyl)-4,6-bis(trifluoromethyl)benzamide]
- IC50 (human Nav1.8): 7 nM
- HLM: percent unchanged after 30 min [1]: 69%

SMILES: COc1ccc(F)cc1Oc1cc(C(F)(F)F)cc(C(F)(F)F)c1C(=O)Nc1cccc(S(N)(=O)=O)c1 [Compound 92, 2-(5-fluoro-2-methoxyphenoxy)-N-(3-sulfamoylphenyl)-4,6-bis(trifluoromethyl)benzamide]
- IC50 (human Nav1.8): 16 nM
- HLM: percent unchanged after 30 min [1]: 113%

SMILES: Cc1cc(F)ccc1Oc1cc(C(F)(F)F)cc(C(F)(F)F)c1C(=O)Nc1cccc(S(N)(=O)=O)c1 [Compound 93, 2-(4-fluoro-2-methylphenoxy)-N-(3-sulfamoylphenyl)-4,6-bis(trifluoromethyl)benzamide]
- IC50 (human Nav1.8): 2 nM
- HLM: percent unchanged after 30 min [1]: 96%

SMILES: NS(=O)(=O)c1cccc(NC(=O)c2c(Cl)cc(Cl)cc2Oc2ccc(F)cc2)c1 [Compound 94, 2,4-dichloro-6-(4-fluorophenoxy)-N-(3-sulfamoylphenyl)benzamide]
- IC50 (human Nav1.8): 5 nM
- HLM: percent unchanged after 30 min [1]: 97%

SMILES: COc1cc(F)ccc1Oc1cc(Cl)cc(Cl)c1C(=O)Nc1cccc(S(N)(=O)=O)c1 [Compound 95, 2,4-dichloro-6-(4-fluoro-2-methoxyphenoxy)-N-(3-sulfamoylphenyl)benzamide]
- IC50 (human Nav1.8): 0.9 nM
- HLM: percent unchanged after 30 min [1]: 91%
